For assay [1] the following is noted: Bringmann, et al., DE 41 17 080; cited from earlier work.
The conditions of assay [2]: Sharma, et al., 1975; cited from earlier work.
For assay [3] the following is noted: Ruangrungsi, et al., 1985; cited from earlier work.
Assay [4] concerns Spodoptera littoralis. Conditions: larvae of Spodoptera littoralis; Grimm 1992; Bringmann 1992; cited from earlier work.
In assay [5] the test system is P. berghei (Anka strain). Put plainly: in vivo antimalarial activity in P. berghei-infected OF1 mice, parasitemia from blood smears after 4 days. Here is the method: Outbred, female, six-week-old OF1 mice (six mice per group treated and nontreated [control]) were inoculated intraperitoneally on day 0 with 10^6 P. berghei (Anka strain) blood forms. Two hours later, they were administered orally 50 mg/kg of korupensamine A. A second, third, and fourth treatment (50 mg/kg each) was given after 24, 48, and 72 h respectively (days 1, 2, and 3). […] The parasitemia (%) in the control (not drug treated) group was 2.45 (range 2.21-2.69; N=6) compared to 0.69 (range 0.48-0.91; N=6) for the treated group.

Assay [6] deals with Plasmodium berghei. Put plainly: in vitro antimalarial activity, 3H-hypoxanthine incorporation, P. berghei (Anka strain). The conditions noted are these: averages of 6 repeat tests. The assay is classed as cell-based.
Assay [7] relates to Plasmodium falciparum. Put plainly: in vitro antimalarial activity, 3H-hypoxanthine incorporation, P. falciparum (strain NF 54/64, clone A1A9) in human erythrocytes. Format: cell-based. The conditions noted are these: averages of 6 repeat tests. Here is the method: This example illustrates the antimalarial activity of the korupensamines of the present invention. […] Continuous in vitro cultures of asexual erythrocytic stages of P. falciparum (strain NF 54/64, clone A1A9) were maintained following essentially the method of Trager and Jensen (Science, 193, 673-675, 1976) at 37° C. under an atmosphere of 5% CO2, 5% O2, and 90% N2. The host cells were human erythrocytes (A or O Rh+). The culture medium was RPMI 1640 (Gibco), containing HEPES (BDH; 4.57 gL^-1) glucose (Sigma; 1.54 gL^-1), 5% NaHCO3 (Merck; 34.78 mlL^-1),and gentamycin (Merck; 8.70 mlL^-1) supplemented with 10% human plasma (A Rh+). Parasites were subinoculated every 3-4 days with initial conditions of 1% parasitemia and 1% hematocrit.
In vitro testing with P. falciparum was as follows. Each compound was dissolved in DMSO at a concentration of 20 mg ml^-1. These solutions were further diluted with physiological saline to obtain a stock solution of 500 μg ml^-1. […]
The test protocol was performed in vitro, based upon the method of Desjardins, et al. (Antimicrobial Agents Chemother., 16, 710-718, 1979). […] The filter papers were dried for 2 h at 52° C. and their radioactivity was measured by liquid scintillation counting in Optiscint HiSafe (LKB Pharmacia).
The mean results, obtained as counts per min (cpm), were expressed as percentages of incorporation or growth inhibition. […]

Usually IC50 stands for the concentration needed to halve the response being measured.

Molecules are shown by their SMILES. ≈ marks a conversion by molar mass, not a printed value.

Turning to `COc1cc(C)cc2ccc(-c3ccc4c(c3O)[C@@H](C)N[C@H](C)C4)c(O)c12` [Dioncophylline B], the activity as fungicides entry in assay [1] was “active as fungicides”.
On to `COc1cc2c(c(OC)c1-c1c(C)cc3cccc(OC)c3c1O)C(C)=N[C@@H](C)C2` [ancistrocladidine], for which the spasmolytic activity result in assay [2] is recorded as “pronounced spasmolytic activity”.
On to `COc1cc2c(c(OC)c1-c1c(C)cc3cccc(OC)c3c1O)[C@@H](C)N(C)[C@@H](C)C2` [ancistrotectorine], for which the antitumor activity result in assay [3] was “antitumor activity”.
For `COc1cccc2c(-c3ccc4c(c3O)C(C)NC(C)C4)c(C)cc(OC)c12` (centres unmarked) [dioncophylline A], the activity as fungicides entry in assay [1] was “active as fungicides”. Moreover, the antifeedant effect result in assay [4] is reported as “antifeedant effect against the larvae of Spodoptera littoralis”.
As for `COc1cc(C)cc2c(-c3c(O)cc(O)c4c3C[C@@H](C)N[C@@H]4C)ccc(O)c12` [korupensamine A], the “parasitemia (%) in the treated group” value in assay [5] (50 mg/kg orally x4 (2 h after inoculation, then 24, 48, 72 h), after 4 days, N=6, control 2.45 (range 2.21-2.69; N=6)) was 0.69 (range 0.48-0.91; N=6) %. In addition, in assay [5] (50 mg/kg orally x4, blood smears after 4 days), the “inhibition of the development of P. berghei erythrocytic forms” value is “marked inhibition of the development of P. berghei erythrocytic forms”. Besides, the IC50 in assay [6] (Plasmodium berghei) amounted to 0.555 µg/mL (≈ 1.46 µM); in assay [7] (Plasmodium falciparum, Erythrocyte, NP54/64, clone A1A9, read-out: IC50 P. faciparum) it was 0.307 µg/mL (≈ 0.809 µM).
As to `COc1cc(C)cc2c(-c3c(O)cc(O)c4c3C[C@@H](C)N[C@@H]4C)ccc(O)c12` [korupensamine B], in assay [6], the “IC50 P. berghei” value turned out to be 0.490 µg/mL (≈ 1.29 µM). In assay [7] (NP54/64, clone A1A9), the “IC50 P. faciparum” value amounted to 0.175 µg/mL (≈ 0.461 µM).

These data come from patent US5409938A, “Antimalarial korupensamines and pharmaceutical compositions and medical uses thereof” (The United States of America as represented by the …, priority 1994, dated 1995).
